Data reported in publication PMC2409936, “Phase I and pharmacokinetic study of XR11576, an oral topoisomerase I and II inhibitor, administered on days 1–5 of a 3-weekly cycle in patients with advanced solid tumours” (British Journal of Cancer, 2004).

How the values were obtained:
[1] = Urinary excretion in patients; assay type: in vivo, human; details: within 24 h after drug administration
Method: All samples were centrifuged immediately after sampling at 3000 r.p.m. for 10 min at 4°C and the plasma was stored at −20°C or lower in polypropylene tubes in the dark until analysis. A total of four urine samples were also collected over a 24-h period; 0–4, 4–8, 8–12 and 12–24 h post-dosing on day 1 of the first cycle only. Of the total amount collected, a measured quantity of 10 ml was drawn off and stored at −80°C until analysis. Concentrations of XR11576 in plasma were determined according to a validated liquid chromatography-mass spectrometry detection method with liquid–liquid extraction at the Drug Metabolism and Pharmacokinetics Department of Quintiles Limited (Internal Report at Quintiles). The lower limit of quantitation was 5 ng ml^−1.
The apparent terminal half-life (T1/2(z)) of XR11576 was calculated as ln 2/k, where k is the terminal elimination rate constant (expressed in h^−1). The peak plasma concentrations (Cmax) and the time to peak plasma concentration (Tmax) were determined from the experimental values. […] The total body clearance (CL) was calculated as the ratio between the administered dose and the AUC0–∞. The extent of accumulation (R0) in plasma was calculated from AUC0–24 h (days 4 or 5)/AUC0–24 h (day 1). The fraction of the administered dose (Fe) excreted in urine and the cumulative amount of XR11576 excreted in urine (Ae) was determined. […]

advanced solid tumours = assay: Tumour evaluation according to RECIST; assay type: in vivo, human
Method: Before treatment, a complete medical history was recorded and a physical examination performed. A complete blood count (CBC) including white blood cell differential and serum biochemistry, which involved sodium, potassium, calcium, urea, creatinine, uric acid, total protein, albumin, total bilirubin, alkaline phosphatase, γ-glutamyl transferase, aspartate aminotransferase, alanine aminotransferase, lactate dehydrogenase and glucose, were performed, as were urinalysis, pregnancy test, relevant tumour markers, electrocardiogram and a chest X-ray. The electrocardiogram was also performed 2 and 24 h after the first drug administration in the first and second cycles. Weekly evaluations included history, physical examination, toxicity assessment according to the CTC criteria version 2.0, and serum chemistries. Complete blood count was determined twice weekly. Tumour evaluation was performed after every two courses according to the Response Evaluation Criteria in Solid Tumours (RECIST) ([Therasse et al, 2000]). Patients were taken off protocol at the onset of disease progression.

rats = details: 14-day oral administration schedule; cited from earlier work
[2] = set-up: method as in data on file, FPD 1055; details: ref data on file, FPD 1055; cited from earlier work
[3] = dogs, cited from earlier work
[4] = test system: multidrug-resistant cells overexpressing P-gp or MRP, cells with downregulation of topoisomerase II levels; set-up: method as in Di Nicolantonio et al, 2002; details: cells overexpressing P-gp or MRP or with downregulated topoisomerase II; ref Di Nicolantonio et al, 2002; cited from earlier work

**Q.** Which “administered dose excreted unchanged in urine” value [1] does the source give for `COc1cccc2c1ccc1nc3cccc(C(=O)N[C@H](C)CN(C)C)c3nc12` [XR11576, 4-methoxy-benzo[a]phenazine-11-carboxylic acid (2-dimethulamino-1-R-methyl-ethyl)-amide] here?
**A.** Less than 0.5%

**Q.** What about the objective responses (advanced solid tumours; 21 assessable patients) of the same molecule?
**A.** No objective responses

**Q.** And the “stable disease, median duration” value (advanced solid tumours; in vivo)?
**A.** 12 weeks

**Q.** And the “stable disease, range of duration” value (advanced solid tumours; in vivo)?
**A.** 12–30 weeks

**Q.** And the “patients with stabilisation of disease” value (advanced solid tumours; melanoma, cervical cancer and parotid cancer)?
**A.** Four patients

**Q.** What about the “maximum tolerated dose (MTD)” value (rats) of the same molecule?
**A.** 150 mg m^−2

**Q.** And the cardiac toxicity [2]?
**A.** no cardiac toxicity was detected

**Q.** And the “reduction in the systemic exposure” value ([3]; repeated daily oral doses)?
**A.** approximately 60%

**Q.** What about the “increase of systemic exposure with dose” value ([3]; single oral administration) of the same molecule?
**A.** more than dose-proportionally

**Q.** And the “activity against resistant cells” value [4]?
**A.** active
